Experiment [1] has as its target LZK (Homo sapiens (Human), UniProt O43283). Kind of experiment: LZK biochemical assay (TR-FRET, MKK7 phosphorylation). In a few lines: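 Catalytic-domain LZK (10 nM) phosphorylated His-MKK7 (15 nM) with 15 μM ATP for 90 min at RT. Phospho-T275/S277 detected by Eu-anti-phospho-MKK7/XL665-anti-His TR-FRET after 16 h at 32° C, using the 665/Eu ratio. Buffer: 50 mM Hepes pH 7.5, 10 mM MgCl2, 1 mM DTT.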
(In general: Time-resolved FRET reads energy transfer from a long-lived donor to a nearby acceptor.)

In experiment [2] the target is DLK (Homo sapiens (Human), UniProt Q12852). Kind of experiment: DLK biochemical assay (TR-FRET, MKK7 phosphorylation). The method, boiled down: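 Catalytic-domain DLK (10 nM) phosphorylates His-MKK7 (15 nM) with 60 μM ATP, 90 min at RT, in pH 7.5 HEPES buffer. Phospho-T275/S277 read by TR-FRET (Eu anti-phospho donor, XL665 anti-His acceptor) after 16 h detection, at 37° C. in 1536 or 4° C. in 384 format.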

SMILES strings stand for the structures.

Chain of LZK (O43283 168-409): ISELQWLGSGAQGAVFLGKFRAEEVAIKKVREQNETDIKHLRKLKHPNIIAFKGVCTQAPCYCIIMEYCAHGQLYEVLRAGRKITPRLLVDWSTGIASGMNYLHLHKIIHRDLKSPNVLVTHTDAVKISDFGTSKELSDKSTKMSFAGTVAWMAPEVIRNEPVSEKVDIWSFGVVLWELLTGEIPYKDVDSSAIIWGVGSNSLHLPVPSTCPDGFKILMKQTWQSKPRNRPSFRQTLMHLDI
Chain of DLK (Q12852 1-520): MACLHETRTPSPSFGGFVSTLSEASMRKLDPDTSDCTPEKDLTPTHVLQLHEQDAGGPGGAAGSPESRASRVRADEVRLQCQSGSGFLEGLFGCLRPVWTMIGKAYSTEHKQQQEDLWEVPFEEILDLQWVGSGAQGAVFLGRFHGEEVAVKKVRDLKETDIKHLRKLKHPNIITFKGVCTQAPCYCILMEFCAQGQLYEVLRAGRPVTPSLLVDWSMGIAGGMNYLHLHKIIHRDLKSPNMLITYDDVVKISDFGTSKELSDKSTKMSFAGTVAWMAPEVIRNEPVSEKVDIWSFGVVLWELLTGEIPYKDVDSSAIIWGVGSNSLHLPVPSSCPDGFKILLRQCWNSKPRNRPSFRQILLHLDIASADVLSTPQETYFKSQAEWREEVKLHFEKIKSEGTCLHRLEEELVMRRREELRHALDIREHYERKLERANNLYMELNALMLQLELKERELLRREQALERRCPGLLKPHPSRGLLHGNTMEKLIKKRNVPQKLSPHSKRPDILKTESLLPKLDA

`CCNC(=O)c1cc(-c2csc(C(=O)NCc3ccc(F)cc3)c2)cc2nc(N)nn12` [Compound 157]: the IC50 – broadly, the concentration that gives 50% inhibition – in experiment [1] amounted to 870 nM; in experiment [2], 180 nM.

Take `CCNC(=O)c1cc(-c2csc(C(=O)N[C@@H](C)c3ccc(F)cc3)c2)cc2nc(N)nn12` [Compound 158]: the IC50 came to 560 nM in experiment [1] and 33 nM in experiment [2].

On to `CC[C@H](C)NC(=O)c1cc(-c2csc(C(=O)N[C@@H](COC)c3ccc(F)cc3)c2)cc2nc(N)nn12` [Compound 159], for which the half-inhibitory concentration (IC50) was determined as 16 nM in experiment [1] and 2.9 nM in experiment [2].

`CC[C@H](C)NC(=O)c1cc(-c2csc(C(=O)N[C@@H](C)c3ccc(F)cc3)c2)cc2nc(N)nn12` [Compound 160]: the 50% inhibitory concentration (IC50) in experiment [1] came out at 52 nM; in experiment [2], 6.3 nM.

For the molecule `CC[C@H](C)NC(=O)c1cc(-c2csc(C(=O)NCc3ccc(F)cc3)c2)cc2nc(N)nn12` [Compound 161], the IC50 in experiment [1] amounted to 43 nM; in experiment [2], 21 nM.

Regarding `CC[C@H](NC(=O)c1cc(-c2cc(C(=O)N[C@H]3CCOC3)n3nc(N)nc3c2)cs1)c1ccc(F)cc1` [Compound 162], the figures for the half-maximal inhibitory concentration (IC50) in experiment [1] and in experiment [2] were 77 nM and 3.5 nM, respectively.

As to `Nc1nc2ccc(-c3csc(C(=O)NCc4ccccc4)c3)cn2n1` [Compound 168], the IC50 came out at 4600 nM in experiment [1] and 380 nM in experiment [2].

For the molecule `Nc1nc2ccc(-c3csc(C(=O)NC4CCCCC4)c3)cn2n1` [Compound 169], the IC50 in experiment [1] is more than 30000 nM; in experiment [2] it was 1100 nM.

Regarding `Nc1nc2ccc(-c3csc(C(=O)NC4CCCC4)c3)cn2n1` [Compound 170], the results for the 50% inhibitory concentration (IC50) in experiment [1] and in experiment [2] were more than 30000 nM and 520 nM, respectively.

Regarding `Nc1nc2ccc(-c3csc(C(=O)NC4CCC4)c3)cn2n1` [Compound 171], the IC50 was more than 30000 nM in experiment [1] and 970 nM in experiment [2].

On to `Nc1nc2ccc(-c3csc(C(=O)NC4CC4)c3)cn2n1` [Compound 172], for which the IC50 in experiment [1] was more than 30000 nM; in experiment [2], 2600 nM.

For the molecule `CC(C)NC(=O)c1cc(-c2ccc3nc(N)nn3c2)cs1` [Compound 173], the figures for the IC50 in experiment [1] and in experiment [2] were 19000 nM and 2150 nM, respectively.

In the case of `Nc1nc2ccc(-c3csc(C(=O)NC4CCCCCC4)c3)cn2n1` [Compound 174], the IC50 in experiment [1] was more than 30000 nM; in experiment [2], 440 nM.

For `CN(C(=O)c1cc(-c2ccc3nc(N)nn3c2)cs1)C1CCCCC1` [Compound 175], the IC50 in experiment [1] was more than 30000 nM; in experiment [2], 9550 nM.

`Nc1nc2ccc(-c3csc(C(=O)NC4CCCC(C(F)(F)F)C4)c3)cn2n1` (stereo not drawn) [Compound 176]: the IC50 in experiment [1] was more than 30000 nM; in experiment [2], 1000 nM.

Turning to `CCO[C@H]1CC[C@H](NC(=O)c2cc(-c3ccc4nc(N)nn4c3)cs2)CC1` [Compound 177], the figures for the IC50 in experiment [1] and in experiment [2] were more than 30000 nM and 1600 nM, respectively.

Consider `CCN1CCCC(NC(=O)c2cc(-c3ccc4nc(N)nn4c3)cs2)C1` (stereo not drawn) [Compound 180], for which the values for the IC50 in experiment [1] and in experiment [2] were more than 30000 nM and 2000 nM, respectively.

On to `CN1CCCC(NC(=O)c2cc(-c3ccc4nc(N)nn4c3)cs2)C1` (stereo not drawn) [Compound 181], for which the IC50 in experiment [1] is more than 30000 nM; in experiment [2], 3500 nM.

Regarding `COc1cccc(CNC(=O)c2cc(-c3ccc4nc(N)nn4c3)cs2)c1` [Compound 182], the IC50 was 25000 nM in experiment [1] and 133 nM in experiment [2].

Turning to `Nc1nc2ccc(-c3csc(C(=O)NC4CCCOC4)c3)cn2n1` (stereo not drawn) [Compound 184], the results for the 50% inhibitory concentration (IC50) in experiment [1] and in experiment [2] were 24000 nM and 1950 nM, respectively.

For `Nc1nc2ccc(-c3csc(C(=O)NC4CCOCC4)c3)cn2n1` [Compound 185], the half-maximal inhibitory concentration (IC50) in experiment [1] amounted to 26000 nM; in experiment [2], 1700 nM.

Take `Nc1nc2ccc(-c3csc(C(=O)NCC4CCCCC4)c3)cn2n1` [Compound 187]: the IC50 in experiment [1] is more than 30000 nM; in experiment [2], 710 nM.

Consider `Nc1nc2ccc(-c3csc(C(=O)NCC4CCOCC4)c3)cn2n1` [Compound 188], for which the IC50 in experiment [1] was more than 30000 nM; in experiment [2], 2000 nM.

Take `Nc1nc2ccc(-c3csc(C(=O)NCC4CCCC4)c3)cn2n1` [Compound 190]: the IC50 in experiment [1] was more than 30000 nM; in experiment [2], 530 nM.

`CCOc1cccc(CNC(=O)c2cc(-c3ccc4nc(N)nn4c3)cs2)c1` [Compound 191]: the IC50 was more than 30000 nM in experiment [1] and 320 nM in experiment [2].

For `Nc1nc2ccc(-c3csc(C(=O)NCc4cccc(OC(F)(F)F)c4)c3)cn2n1` [Compound 192], the IC50 in experiment [1] is more than 30000 nM; in experiment [2], 460 nM.

With `Nc1nc2ccc(-c3csc(C(=O)NCc4cccc(Cl)c4)c3)cn2n1` [Compound 193], the IC50 turned out to be 5000 nM in experiment [1] and 615 nM in experiment [2].

Regarding `Cc1cccc(CNC(=O)c2cc(-c3ccc4nc(N)nn4c3)cs2)c1` [Compound 194], the values for the IC50 in experiment [1] and in experiment [2] were more than 30000 nM and 670 nM, respectively.

`Nc1nc2ccc(-c3csc(C(=O)NCc4cccc(OC(F)F)c4)c3)cn2n1` [Compound 195]: the IC50 in experiment [1] amounted to 8800 nM; in experiment [2] it was 480 nM.

With `CC(C)Oc1cccc(CNC(=O)c2cc(-c3ccc4nc(N)nn4c3)cs2)c1` [Compound 196], the values for the IC50 in experiment [1] and in experiment [2] were 9490 nM and 350 nM, respectively.

Take `Nc1nc2ccc(-c3csc(C(=O)NCC4CCCOC4)c3)cn2n1` (stereo not drawn) [Compound 197]: the IC50 is more than 30000 nM in experiment [1] and 1600 nM in experiment [2].

For `CN1C2CCC1CC(NC(=O)c1cc(-c3ccc4nc(N)nn4c3)cs1)C2` (stereo not drawn) [Compound 201], the IC50 in experiment [1] was more than 30000 nM; in experiment [2], 2800 nM.

For the molecule `COc1ccc(CNC(=O)c2cc(-c3ccc4nc(N)nn4c3)cs2)cc1OC` [Compound 202], the IC50 is more than 30000 nM in experiment [1] and 820 nM in experiment [2].

Regarding `COc1ccc(CNC(=O)c2cc(-c3ccc4nc(N)nn4c3)cs2)cc1` [Compound 203], the IC50 in experiment [1] was 13000 nM; in experiment [2], 1010 nM.

In the case of `Nc1nc2ccc(-c3csc(C(=O)NCc4cccc(OCC(F)(F)F)c4)c3)cn2n1` [Compound 204], the half-maximal inhibitory concentration (IC50) is more than 30000 nM in experiment [1] and 300 nM in experiment [2].

Take `Nc1nc2ccc(-c3csc(C(=O)NCc4cccc(OC5CC5)c4)c3)cn2n1` [Compound 205]: the half-maximal inhibitory concentration (IC50) in experiment [1] is 12000 nM; in experiment [2], 230 nM.

With `Nc1nc2ccc(-c3csc(C(=O)NCc4cccnc4)c3)cn2n1` [Compound 206], the IC50 in experiment [1] turned out to be 28000 nM; in experiment [2], 550 nM.

With `Nc1nc2ccc(-c3csc(C(=O)NCc4cccc(OCCN5CCOCC5)c4)c3)cn2n1` [Compound 207], the IC50 in experiment [1] turned out to be 27000 nM; in experiment [2], 470 nM.

Take `Nc1nc2ccc(-c3csc(C(=O)NCC4COCCO4)c3)cn2n1` (stereo not drawn) [Compound 209]: the IC50 in experiment [1] is more than 30000 nM; in experiment [2], 2500 nM.

Turning to `Nc1nc2ccc(-c3csc(C(=O)NCCc4ccccc4)c3)cn2n1` [Compound 211], the values for the IC50 in experiment [1] and in experiment [2] were 18000 nM and 970 nM, respectively.

For `Nc1nc2ccc(-c3csc(C(=O)NCc4ccc(F)c(F)c4)c3)cn2n1` [Compound 212], the IC50 is 9600 nM in experiment [1] and 1070 nM in experiment [2].

Take `COc1cccc(CN(C)C(=O)c2cc(-c3ccc4nc(N)nn4c3)cs2)c1` [Compound 213]: the IC50 in experiment [1] was determined as 7600 nM; in experiment [2], 2450 nM.

On to `CN1CCO[C@H](CNC(=O)c2cc(-c3ccc4nc(N)nn4c3)cs2)C1` [Compound 214], for which the IC50 was 25000 nM in experiment [1] and 1750 nM in experiment [2].

Turning to `Nc1nc2ccc(-c3csc(C(=O)NCCCc4ccccc4)c3)cn2n1` [Compound 215], the IC50 in experiment [1] worked out at 30000 nM; in experiment [2] it was 720 nM.

For `Nc1nc2ccc(-c3csc(C(=O)NCc4cccc(F)c4)c3)cn2n1` [Compound 216], the 50% inhibitory concentration (IC50) in experiment [1] was found to be 5900 nM; in experiment [2] it was 1140 nM.

For the molecule `Nc1nc2ccc(-c3csc(C(=O)NCc4ccccc4Cl)c3)cn2n1` [Compound 219], the IC50 in experiment [1] was determined as 3100 nM; in experiment [2], 505 nM.

On to `Nc1nc2ccc(-c3csc(C(=O)NCc4ccccc4C(F)(F)F)c3)cn2n1` [Compound 220], for which the IC50 in experiment [1] turned out to be 22000 nM; in experiment [2] it was 580 nM.

On to `Nc1nc2ccc(-c3csc(C(=O)NCc4c(F)cccc4F)c3)cn2n1` [Compound 221], for which the half-inhibitory concentration (IC50) in experiment [1] was determined as 9200 nM; in experiment [2] it was 1240 nM.

On to `Nc1nc2ccc(-c3csc(C(=O)NCc4cc(F)cc(F)c4)c3)cn2n1` [Compound 222], for which the IC50 in experiment [1] turned out to be 5700 nM; in experiment [2], 1390 nM.

For `Cc1cccc(CNC(=O)c2cc(-c3ccc4nc(N)nn4c3)cs2)c1C` [Compound 223], the IC50 worked out at 23000 nM in experiment [1] and 640 nM in experiment [2].

Regarding `Nc1nc2ccc(-c3csc(C(=O)Nc4ccccc4Cl)c3)cn2n1` [Compound 224], the IC50 in experiment [1] is more than 30000 nM; in experiment [2], 1660 nM.

Consider `Nc1nc2ccc(-c3csc(C(=O)NCc4ccc(Cl)cc4)c3)cn2n1` [Compound 225], for which the figures for the IC50 in experiment [1] and in experiment [2] were 6950 nM and 710 nM, respectively.

`CCOc1ccccc1CNC(=O)c1cc(-c2ccc3nc(N)nn3c2)cs1` [Compound 226]: the values for the IC50 in experiment [1] and in experiment [2] were 5000 nM and 670 nM, respectively.

Take `Cc1ccccc1NC(=O)c1cc(-c2ccc3nc(N)nn3c2)cs1` [Compound 227]: the IC50 in experiment [1] was more than 30000 nM; in experiment [2], 835 nM.

Take `COc1ccccc1NC(=O)c1cc(-c2ccc3nc(N)nn3c2)cs1` [Compound 228]: the IC50 in experiment [1] was more than 30000 nM; in experiment [2], 480 nM.

Turning to `CN1CCCCC1CNC(=O)c1cc(-c2ccc3nc(N)nn3c2)cs1` (stereo not drawn) [Compound 230], the half-maximal inhibitory concentration (IC50) is 28000 nM in experiment [1] and 2500 nM in experiment [2].

Turning to `COc1cc(CNC(=O)c2cc(-c3ccc4nc(N)nn4c3)cs2)ccc1F` [Compound 231], the values for the IC50 in experiment [1] and in experiment [2] were 11000 nM and 860 nM, respectively.

(Values after patent publication US20230382904A1, “SUBSTITUTED 4-([1,2,4]TRIAZOLO[1,5-a]PYRIDIN-6-YL)THIOPHENE-2-CARBOXAMIDE DERIVATIVES AND USE THEREOF” (The Johns Hopkins University, priority 2020, published 2023).)
